Test results reported in ChEMBL document CHEMBL5131392, “A novel ICG-labeled cyclic TMTP1 peptide dimer for sensitive tumor imaging and enhanced photothermal therapy in vivo” (Eur J Med Chem, 2022).
Blank lines part the entries; values can stand above or below the compound they belong to. Calls of active or inactive are those of the source. The calls are words filed in the database; no cut-off is given here. Bridge positions count the residues as written; N and C are the ends. Square brackets hold non-standard residues; d marks the D form. Peptide text beside a SMILES is read from it. I, II: the chains in the order shown. * marks the point of attachment. X1 = CC1(C)C(/C=C/C=C/C=C/C=C2/N(CCCCCC(=O)*)c3ccc4ccccc4c3C2(C)C)=[N+](CCCCS(=O)(=O)[O-])c2ccc3ccccc3c21; PEG4 = NCCOCCOCCOCCOCCC(=O)O

Tests used:
[1] = Drug uptake in tumor of mouse 4T1 cells allografted in BALB/c mouse assessed as increase in fluorescence signal at 30 uM, iv measured after 12 to 48 hrs by IVIS spectrum in vivo imaging analysis; type: ADME, organism-based, Neoplasm; conditions: time 12-48 hrs
4T1 [2] = test: Antitumor activity against mouse 4T1 cells allografted in BALB/c mouse assessed as inhibition of tumor growth at 100 uM, iv treated for 12 hrs followed by 2.5 W/cm2 NIR laser irradiation for 3 mins and measured every 2 days; type: functional, organism-based; conditions: time 2.0 day
4T1 [3] = test: Antitumor activity in mouse 4T1 cells allografted in BALB/c mouse assessed as increase in temperature of tumor site at 100 uM, iv measured after 12 hrs followed by 2.5 W/cm2 NIR laser irradiation for 3 mins by infrared thermal imaging analysis; type: functional
[4] = Cmax in Sprague-Dawley rat at 100 uM, iv measured up to 24 hrs by IVIS spectrum imaging analysis; type: ADME, organism-based; parameters: time < 24 hrs, dose 100 µM, route iv; conditions: in vivo
[5] = MRT 0 to t in Sprague-Dawley rat at 100 uM, iv measured up to 24 hrs by IVIS spectrum imaging analysis; type: ADME, organism-based; conditions: in vivo
[6] = AUC 0 to t in Sprague-Dawley rat at 100 uM, iv measured up to 24 hrs by IVIS spectrum imaging analysis; type: ADME, organism-based; parameters: time < 24 hrs, dose 100 µM, route iv; conditions: in vivo
[7] = Half life in Sprague-Dawley rat at 100 uM, iv measured up to 24 hrs by IVIS spectrum imaging analysis; type: ADME, organism-based; conditions: in vivo
[8] = Drug accumulation in BALB/c mouse liver assessed as increase in fluorescence intensity at 30 uM, iv measured after 30 mins by NIR fluorescence imaging analysis; type: ADME, organism-based; conditions: in vivo, 0.5 h
[9] = Toxicity in BALB/c mouse allografted with mouse 4T1 cells assessed as change in body weight at 100 uM, iv treated for 12 hrs followed by 2.5 W/cm2 NIR laser irradiation for 3 mins and measured every 2 days; type: organism-based; conditions: in vivo, 48 h, time 2 day
[10] = Toxicity in BALB/c mouse allografted with mouse 4T1 cells assessed as histopathological change in kidney at 100 uM, iv measured after 12 hrs followed by 2.5 W/cm2 NIR laser irradiation for 3 mins by hematoxylin and eosin staining based analysis; type: organism-based; conditions: in vivo
4T1 [11] = test: Induction of apoptosis in mouse 4T1 cells allografted in BALB/c mouse assessed as increase in total apoptotic cells at 100 uM, iv measured after 12 hrs followed by 2.5 W/cm2 NIR laser irradiation for 3 mins by hematoxylin and eosin staining based analysis; type: functional, organism-based
4T1 [12] = test: Cytotoxicity against mouse 4T1 cells assessed as cell viability at higher concentration incubated for 24 hrs by CCK-8 assay relative to control; type: functional
4T1 [13] = test: Induction of apoptosis in mouse 4T1 cells allografted in BALB/c mouse assessed as increase in total apoptotic cells at 100 uM, iv measured after 12 hrs followed by 2.5 W/cm2 NIR laser irradiation for 3 mins by TUNEL staining based analysis; type: functional, organism-based
[14] = Toxicity in BALB/c mouse allografted with mouse 4T1 cells assessed as histopathological change in heart at 100 uM, iv measured after 12 hrs followed by 2.5 W/cm2 NIR laser irradiation for 3 mins by hematoxylin and eosin staining based analysis; type: organism-based; conditions: in vivo
[15] = Drug uptake in tumor of mouse 4T1 cells allografted in BALB/c mouse assessed as XPNPEP2 expression by […] based analysis; type: ADME, Neoplasm
[16] = Drug uptake in lymph node of mouse 4T1 cells allografted in BALB/c mouse assessed as increase in ratio of fluorescence signal in tumor lymph node to normal lymph node at 30 uM, iv measured up to 48 hrs by NIR fluorescence imaging analysis; type: ADME, organism-based; conditions: in vivo
[17] = Toxicity in BALB/c mouse allografted with mouse 4T1 cells assessed as histopathological change in lung at 100 uM, iv measured after 12 hrs followed by 2.5 W/cm2 NIR laser irradiation for 3 mins by hematoxylin and eosin staining based analysis; type: organism-based; conditions: in vivo
4T1 [18] = test: Induction of apoptosis in mouse 4T1 cells allografted in BALB/c mouse assessed as increase in total necrotic cells at 100 uM, iv measured after 12 hrs followed by 2.5 W/cm2 NIR laser irradiation for 3 mins by hematoxylin and eosin staining based analysis; type: functional, organism-based
[19] = Biodistribution in BALB/c mouse assessed as increase in fluorescence signal at 30 uM, iv measured after 30 mins by NIR fluorescence imaging analysis; type: ADME, organism-based; conditions: in vivo, 0.5 h
[20] = Toxicity in BALB/c mouse allografted with mouse 4T1 cells assessed as histopathological change in spleen at 100 uM, iv measured after 12 hrs followed by 2.5 W/cm2 NIR laser irradiation for 3 mins by hematoxylin and eosin staining based analysis; type: organism-based; conditions: in vivo
[21] = Toxicity in BALB/c mouse allografted with mouse 4T1 cells assessed as histopathological change in liver at 100 uM, iv measured after 12 hrs followed by 2.5 W/cm2 NIR laser irradiation for 3 mins by hematoxylin and eosin staining based analysis; type: organism-based; conditions: in vivo
[22] = Drug uptake in tumor of mouse 4T1 cells allografted in BALB/c mouse assessed as increase in fluorescence signal at 30 uM, iv measured after 12 hrs by NIR fluorescence imaging analysis; type: ADME, organism-based, Neoplasm; conditions: in vivo
4T1 [23] = test: Upregulation of XPNPEP expression in mouse 4T1 cells by Western blot analysis; type: functional, cell-based
[24] = Drug uptake in tumor of mouse 4T1 cells allografted in BALB/c mouse assessed as increase in ratio of fluorescence signal in tumor to normal tissue at 30 uM, iv measured after 12 to 48 hrs by NIR fluorescence imaging analysis; type: ADME, organism-based, Neoplasm; conditions: in vivo, time 12-48 hrs
[25] = Drug accumulation in BALB/c mouse kidney assessed as increase in fluorescence intensity at 30 uM, iv measured after 2 hrs by NIR fluorescence imaging analysis; type: ADME, organism-based; conditions: in vivo
[26] = Drug uptake in mouse 4T1 cells assessed as increase in fluorescence signal measured after 1 hr by flow cytometry analysis; type: ADME, cell-based; conditions: 4t1, 1 h
[27] = Drug uptake in lymph node of mouse 4T1 cells allografted in BALB/c mouse assessed as increase in fluorescence signal at 30 uM, iv measured after 24 to 48 hrs by NIR fluorescence imaging analysis; type: ADME, organism-based; conditions: in vivo, time 24-48 hrs

Drug uptake [1]: Active
SMILES: CC(C)[C@@H]1NC(=O)[C@H](CC(N)=O)NC(=O)CNC(=O)[C@@H](NC(=O)CNC(=O)CCOCCOCCOCCOCCNC(=O)CCCCCN2/C(=C/C=C/C=C/C=C/C3=[N+](CCCCS(=O)(=O)[O-])c4ccc5ccccc5c4C3(C)C)C(C)(C)c3c2ccc2ccccc32)CSSC[C@@H](C(=O)O)NC(=O)CNC(=O)[C@H](CCC(N)=O)NC(=O)[C@H](CCCNC(=N)N)NC(=O)[C@H](C(C)C)NC1=O ({X1-PEG4}-GCGNVVRQGC-OH; disulfide 2-10)
Activity (4T1 [2]): Active | T (4T1 [3]): 47 °C

Cmax at 100 µM [4]: 57.6 nM | MRT last at 24 h, 100 µM [5]: 0.251 h | AUC(0-t) at 24 h, 100 µM [6]: 0.0175 µM·h | half-life at 100 µM [7]: 0.4 h
SMILES: CC1(C)C(/C=C/C=C/C=C/C=C2\N(CCCCS(=O)(=O)[O-])c3ccc4ccccc4c3C2(C)C)=[N+](CCCCS(=O)(=O)[O-])c2ccc3ccccc3c21.[Na+] [INDOCYANINE GREEN]
T (4T1 [3]): 40 °C

Drug uptake [8]: Active | Cmax at 100 µM [4]: 212 nM | Drug uptake [1]: Active | Drug uptake [16]: Active | MRT last at 24 h, 100 µM [5]: 5.77 h | AUC(0-t) at 24 h, 100 µM [6]: 1.29 µM·h | half-life at 100 µM [7]: 5.9 h | Drug uptake [19]: Active | Drug uptake [22]: Active | T/C [24]: 40 | Drug uptake [25]: Active | Drug uptake [26]: Active | Drug uptake [27]: Active
SMILES: CC(C)[C@@H]1NC(=O)[C@H](CC(N)=O)NC(=O)CNC(=O)[C@@H](NC(=O)CNC(=O)CCOCCOCCOCCOCCNC(=O)CC[C@H](NC(=O)CCCCCN2/C(=C/C=C/C=C/C=C/C3=[N+](CCCCS(=O)(=O)[O-])c4ccc5ccccc5c4C3(C)C)C(C)(C)c3c2ccc2ccccc32)C(=O)NCCOCCOCCOCCOCCC(=O)NCC(=O)N[C@H]2CSSC[C@@H](C(=O)O)NC(=O)CNC(=O)[C@H](CCC(N)=O)NC(=O)[C@H](CCCNC(=N)N)NC(=O)[C@H](C(C)C)NC(=O)[C@H](C(C)C)NC(=O)[C@H](CC(N)=O)NC(=O)CNC2=O)CSSC[C@@H](C(=O)O)NC(=O)CNC(=O)[C@H](CCC(N)=O)NC(=O)[C@H](CCCNC(=N)N)NC(=O)[C@H](C(C)C)NC1=O (I: X1-E[PEG4]GCGNVVRQGC-OH / II: [PEG4]GCGNVVRQGC-OH; amide I:1-II:N; disulfide I:4-I:12, II:3-II:11)
Activity [9]: Non-Toxic | Activity [10]: Non-Toxic | Activity (4T1 [11]): Active | cell viability (4T1 [12]): >90% | Activity (4T1 [13]): Active | Activity (4T1 [2]): Active | Activity [14]: Non-Toxic | Drug uptake [15]: Active | Activity [17]: Non-Toxic | Activity (4T1 [18]): Active | Activity [20]: Non-Toxic | T (4T1 [3]): 51 °C | Activity [21]: Non-Toxic | Activity (4T1 [23]): Active
